Data published in US5321032A, “Peptide compounds and pharmaceutical compositions thereof” (priority 1990, dated 1994).

Target: T1, substance P receptor (Cavia porcellus, UniProt P30547)
T1 construct: The trachea and lung were removed and homogenized in buffer; from tissue; host or cells: guinea pig trachea and lung, crude membrane fraction
Experiment: 3H-Substance P binding to guinea pig crude lung membrane preparation
Settings: test compound 1 μg/ml; 3H-substance P 1 nM; crude lung membrane fractions, 4° C., 30 minutes
Protocol: 1. Binding with ^3 H-P substance receptor
(a) Crude lung membrane preparation
Male Hartly strain guinea pigs were sacrificed by decapitation, The trachea and lung were removed and homogenized in buffer (0.25M sucrose, 50 mM Tris-HCl pH 7.5, 0.1 mM MEDTA) by using Polytoron (Kinematica). The homogenate was centrifuged (1000 x g, 10 min) to remove tissue clumps and the supernatant was centrifuges (14000 x g, 20 min) to yield pellets. The pellets were resuspended in buffer (5 mM Tris-HC1 pH 7.5), homofenized with a teflon homogenizer and centrifuged (14000 x g, 20 min) to yield pellets which were referred to crude membrane fractions. The obtained pallets were stored at -70 ° C. until use.
(b) ^3 H-Substance P binding to preparation membrane
Frozen crude membrane fractions were thawed and resuspended in Medium 1 (50 mM Tris-HC1 pH 7.5, 5 mM MnCl2, 0.02% BSA, 2 μg/ml chymostatin, 4 μg/ml leupeptin, 40 μg/ml bacitaracin). ^3 H-substance P (1 nM ) was incubated with 100 μl of the membrane preparation in Medium 1 at 4° C. for 30 minutes in a final volume of 500 μl. At the end of the incubation over a Whatman GF/B glass filter (pretreated with 0.1% polyethylene imine for 3 hours prior to use) under aspiration. The filters werre then washed four times with 5 ml of the buffer (50 mM Tris-HCl, pH 7.5). The radioactivity was counted in 5 ml of Aquazol-2 in Packerd scintillation counter (Packerd TRI-CARB 4530).

T1 sequence (P30547 whole entry): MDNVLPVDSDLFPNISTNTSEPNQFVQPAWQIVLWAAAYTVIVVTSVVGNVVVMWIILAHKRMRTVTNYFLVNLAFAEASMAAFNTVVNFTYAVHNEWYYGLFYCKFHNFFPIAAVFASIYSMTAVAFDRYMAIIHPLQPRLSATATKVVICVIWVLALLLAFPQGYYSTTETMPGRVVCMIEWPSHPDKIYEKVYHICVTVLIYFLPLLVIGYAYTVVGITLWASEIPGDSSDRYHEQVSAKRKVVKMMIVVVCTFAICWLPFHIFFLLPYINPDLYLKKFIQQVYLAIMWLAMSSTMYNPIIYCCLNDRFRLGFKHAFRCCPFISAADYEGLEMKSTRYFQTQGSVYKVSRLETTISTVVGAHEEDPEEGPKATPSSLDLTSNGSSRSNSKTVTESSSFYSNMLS

SMILES | suppression rate (%)
CC(=O)N[C@H](C(=O)N[C@H](Cc1cn(C=O)c2ccccc12)C(=O)N(C)[C@@H](Cc1ccccc1)C(=O)N(C)Cc1ccccc1)[C@@H](C)O [(c)] | 96
CC(=O)N[C@H](C(=O)N[C@H](Cc1cn(C=O)c2ccccc12)C(=O)N[C@@H](Cc1cccs1)C(=O)N(C)Cc1ccccc1)[C@@H](C)O [(a)] | 100
CC(=O)N[C@H](C(=O)N[C@H](Cc1cn(C=O)c2ccccc12)C(=O)N1Cc2ccccc2C[C@@H]1C(=O)N(C)Cc1ccccc1)[C@@H](C)O [(b)] | 99
